The record followed here is patent US20090082368A1, “METHODS OF MODULATING NEUROTROPHIN-MEDIATED ACTIVITY” (PainCeptor Pharma Corporation, priority 2007, published 2009).

The subject of assay [1] is NGF receptors on PC12 cells (TrkA+p75). The experiment in a line: NGF binding (125I-NGF) using PC12 cells. Also noted: species or system rat. The method, then: NGF binding was evaluated using methods familiar to those who are skilled in the art. Briefly, cells expressing one or both NGF receptors (PC12: TrkA+p75; A875: p75 alone; HEK/CHO_trkA: TrkA alone) were harvested by replacing the medium with the cell dissociation buffer (Amersham) and incubating at 37° C. for 15 min. […] For most compounds, multiple dose-response curves were generated.
The IC50 data shown in Tables A-J were acquired using the procedure described herein using PC12 cells.

Assay [2] has as its system NGF-induced ERK phosphorylation. The experiment in a line: Inhibition of NGF-induced Erk 1/2 phosphorylation (pERK). The assay is classed as cell-based. Particulars: Rattus norvegicus, Table 2. Here is the method: This assay is useful for establishing that the compounds of the invention are functional NGF antagonists, not receptor agonists (an agonist could conceivably block NGF binding but actually activate the receptor). Erk 1/2 is a kinase activated down stream of TrkA and is a well studied member of the NGF-induced signal transduction cascade.
PC12 cells expressing TrkA and p75 are acutely exposed to 1 ng/mL NGF (15 min; 37° C.; 5% CO2) that is pre-incubated (30 min; room temperature) with or without the compounds. Cells are lysed in Laemmli sample buffer (for SDS-PAGE) or a lysis buffer containing Triton X-100 (for ELISA). Following SDS-PAGE, proteins are electroblotted onto nitrocellulose and immunoprobed for phosphorylated Erk 1 and 2. Blocking and primary antibody incubations of immunoblots are performed in Tris-buffered saline-Tween (10 mM Tris, pH 8.0, 150 mM NaCl, and 0.2% Tween 20) supplemented with 5% (w/v) bovine serum albumin (BSA); secondary antibody incubations are performed in 5% (w/v) dried skim milk powder. Immunoreactive bands are detected by chemiluminescence.
A quantitative method to detect phosphorylated Erk 1/2 by immunofluorescence is also used. Neuroscreen-1 cells are grown in a 96 well plate. NGF preincubated with or without the compounds for 30 minutes, is added to the cells for 5 minutes at 37° C. Cells are then fixed and stained with an antibody against phosphor-ERK 1/2. A fluorescently labeled secondary antibody is used to show the presence of phosphorylated ERK 1/2. Quantitative results are generated by photographing the wells with light of the appropriate wavelength, followed by software based image analysis.

Assay [3] has as its system spontaneous pain evoked by intraplantar injection of formalin in the rat. As to the kind of experiment: Formalin model of acute tonic pain. Conditions: for pain intensity as evaluated by the licking behavior: s.c. 30 min prior to formalin, 2E 0.1-10 mg/kg, 1G 0.4-20 mg/kg, 47G 10-300 μmol/kg, 50G 30 and 100 μmol/kg. The assay is classed as in vivo. Here is the method: Male Sprague-Dawley rats are housed together in groups of three animals under standard conditions with unrestricted access to food and water. All experiments are conducted according to the ethical guidelines for investigations of experimental pain in conscious animals (Zimmerman, 1983).
Assessment of formalin-induced flinching behavior in normal, uninjured rats (body weight 200-300 g) is made after formalin (2.5% in saline, 50-100 μl, s.c.) is injected into the plantar surface of the hindpaw using a 27G needle. Rats are pretreated with test compounds either administered intravenously (IV), by subcutaneous injection (SC) or by orally (PO).
Nociceptive behavior is determined manually every 5 min by measuring the amount of time spent in each of four behavioral categories: 0, treatment of the injected hindpaw is indistinguishable from that of the contralateral paw; 1, the injected paw has little or no weight placed on it; 2, the injected paw is elevated and is not in contact with any surface; 3, the injected paw is licked, bitten, or shaken. A weighted nociceptive score, ranging from 0 to 3 is calculated by multiplying the time spent in each category by the category weight, summing these products, and dividing by the total time for each 5 min block of time. (Coderre et al., Pain 1993; 54: 43). On the basis of the resulting response patterns, […] of nociceptive behavior are identified and scored: first phase (P1; 0-5 min), interphase (Int; 6-15 min), second phase (P2; […]), phase 2A (P2A; 16-40 min) and phase 2B (P2B; 41-60 min).
Statistical analysis is performed using the Prism™ 4.01 software package (GraphPad, San Diego, Calif., USA). The difference in response levels between treatment groups and control vehicle group is analyzed using an ANOVA followed by Bonferroni's method for post-hoc pair-wise comparisons. A p value<0.05 is considered to be significant.

Assay [4] deals with hyperalgesia from acute paw inflammation caused by intraplantar λ-carrageenan. As to the kind of experiment: Carrageenan model (inflammatory pain). The format is in vivo. Conditions: rat, SC 10 min pre- and 3 h post-carrageenan, tested 4 h post; 1G 20 mg/kg, 50G 2×105 mg/kg. The method, then: Acute inflammatory hyperalgesia is induced in rats by unilateral injection of 150 μl of a 3% solution of λ-carrageenan into the plantar surface of the left hind paw 3-5 hours prior to testing. Thermal hyperalgesia, mechanical allodynia, mechanical hyperalgesia, weight bearing asymmetry and paw inflammation are determined. Rats are pretreated with test compounds either administered intravenously (IV), by subcutaneous injection (SC) or by oral gavage (PO). Thermal nociceptive thresholds are determined according to the method described elsewhere (Hargreaves et al., 1988). Briefly, through the glass surface, a radiant heat source (8V, 50 W projector bulb) is focused onto the plantar surface of the hind paw. The rat's paw-withdrawal latency to this stimulus is recorded to the nearest 0.1 s. Each latency score is an average of three trials, which are separated by at least 5 min. In all rats, both the injured and uninjured hind paws are similarly tested, allowing direct comparisons between inflamed and non-inflamed paws. Mechanical hyperalgesia is determined by measuring the difference of withdrawal thresholds in response to increasing pressure in the inflamed vs contralateral paw using the Randall-Sellito Paw pressure meter (IITC Life Science) (Randall L O and Sellito J J., 1957). Briefly, rats are held in a contention jacket suspended by a stand and allowed to acclimate for 10 min. […]

In assay [5] the test system is PC12 cells. The experiment in a line: Inhibition of NGF-induced neurite outgrowth. The assay is classed as cell-based. Particulars: Rattus norvegicus, PC-12, 96 h, Table 3, 4 days exposure to NGF. The method, then:
This assay is run as a further functional marker of NGF antagonism and takes advantage of the differentiation of PC12 cells (neurite outgrowth) induced by NGF. Cultures of PC12 cells are grown on Terasaki plates pre-coated with poly-D-lysine. Cells are exposed to NGF (1-50 (preferably 5) ng/ml) to induce neurite outgrowth as described elsewhere [LA Greene & AS Tischler, Establishment of a noradrenergic clonal line of rat adrenal pheochromocytoma cells which respond to nerve growth factor, Proc Natl Acad Sci USA. 1976 July; 73(7): 2424-2428]. In addition to NGF, cells are exposed to varying concentration of the compounds or vehicle. Following 4 days of exposure to NGF in the presence or absence of compound, neurite outgrowth is quantified. A neurite is scored if its caliber from origin to terminal is approximately the same and the length is equal to or greater than 1.5 the cell body diameter. The number of neurite bearing cells per total number of viable cells is calculated for each condition; the number of cells with neurites in the presence of NGF (without compound exposure) is considered to represent maximal (100%) outgrowth, to which the inhibitory effect of compounds of the invention on NGF-induced outgrowth is compared.

Where [6] appears, read: Table 2, read-out: NGF Binding Assay IC50.
Where [7] appears, read: Table J (Formula VIII), NGF binding, PC12 cells, read-out: IC50.

As usually defined, the IC50 is the concentration that gives 50% inhibition. Broadly, the ED50 is the dose that gives a 50% effect, or the effect in half of the subjects.

Like-named read-outs stand apart in the source and are kept apart here.

As to `O=C(O)CCCN1C(=O)c2cccc3cc(-n4cnnn4)cc(c23)C1=O` [Compound 50G, 4-[1,3-Dioxo-5-(1H-tetrazol-1-yl)-1H-benzo[de]isoquinolin-2(3H)-yl]butanoic acid], the figures for the concentration for half-maximal inhibition (IC50) in assay [1] (setting [6]), in assay [1] (setting [7]) and in assay [2] were below 10 µM, below 10 µM and 5 to 15 µM, respectively. The “pain intensity as evaluated by the licking behavior” value in assay [3] is recorded as “dose-dependent reduction of the pain intensity”. Also, in assay [4], the “mechanical hyperalgesia (Randall-Sellito)” value is given as “marginally improving the mechanical hyperalgesia”. The “thermal hyperalgesia (Hargreaves' assay)” value in assay [4] is on record as “significantly reversed the thermal hyperalgesia”.
For the molecule `Cn1nnnc1-c1cc2c3c(cccc3c1)C(=O)N(CCCC(=O)O)C2=O` [Compound 47G, 4-[5-(1-Methyl-1H-tetrazol-5-yl)-1,3-dioxo-1H-benzo[de]isoquinolin-2(3H)-yl]butanoic acid], the IC50 is below 10 µM in assay [1] (setting [6]); below 10 µM in assay [1] (Table 3, read-out: NGF Binding Assay IC50); below 10 µM in assay [1] (setting [7]); 15 to 25 µM in assay [2]; 0.1 to 5 µM in assay [5]. Besides, in assay [3], the “pain intensity as evaluated by the licking behavior” value is “dose-dependent reduction of the pain intensity”. Moreover, in assay [3] (sc, given 30 min prior to formalin injection, read-out: ED50, number of licking and biting episodes in phase IIa of the formalin test), the 50% effective dose (ED50) was around 100 µmol/kg.
